Columns and labels:
[1] = xn = mol fraction of the nth substance listed; settings: 100 kPa, Liquid, x1 = 1; for viscosity: Capillary tube (Ostwald / Ubbelohde) method; for mass density: Vibrating tube method
[2] = 101.33 kPa, Liquid; for viscosity: Capillary tube (Ostwald / Ubbelohde) method; for mass density: Vibrating tube method

CCCCn1cc[n+](C)c1.N#CN=C=[N-] [1-butyl-3-methylimidazolium dicyanamide] + O=C1CCCO1
[1]
Settings	mass density [kg/m3]	viscosity [mPa·s]
273.15 K	1075.2	95.68
283.15 K	1068.94	55.27
293.15 K	1062.52	35.04
298.15 K	1059.33	28.5
303.15 K	1056.15	23.52
313.15 K	1049.85	16.95
323.15 K	1043.61	12.65

CCCCn1cc[n+](C)c1.N#CN=C=[N-] [1-butyl-3-methylimidazolium dicyanamide]
[2]
Settings	mass density [kg/m3]	viscosity [mPa·s]
273.15 K	1075.2	95.68
278.15 K	1072.13	71.85
283.15 K	1068.94	55.27
288.15 K	1065.72	43.57
293.15 K	1062.52	35.04
298.15 K	1059.33	28.5
303.15 K	1056.15	23.52
308.15 K	1052.99	19.87
313.15 K	1049.85	16.95
318.15 K	1046.72	14.61
323.15 K	1043.61	12.65
328.15 K	1040.51	–
333.15 K	1037.43	–

Reference: the NIST ThermoML archive (doi:10.1016/j.jct.2016.02.014)
